Experiments:
rodent = conditions: classification C+/C−; cited from earlier work
liver = conditions: in vivo; cited from earlier work
[1] = classification M+/M−; cited from earlier work
[2] = test system: mRNA expressed from the genes (A) to (D) in rat liver; experiment: Behavior of genes (mRNA expression level, oligo-DNA microarray) in rat liver after 28-day oral administration; format: in vivo
Outline: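 Male F344 SPF rats, 5 weeks old, four per group, received carcinogens, non-carcinogens or solvent vehicle by oral gavage once daily for 28 days. Liver total RNA was then extracted. Changes of ≥1.5-fold or ≤1/1.5 versus vehicle control, in a consistent direction across carcinogens, counted as significant.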

SMILES: O=CCCCC=O [TS081, Glutaraldehyde]
- Carcinogenicity (rodent): C−
- Liver carcinogenicity (liver): Cr−
- Mutagenicity by Ames test [1]: M+
- Behavior of gene caused by administration of chemical substance ([2]; Gene No. 154, Rn.185941, group (C)): −
- Behavior of gene caused by administration of chemical substance ([2]; Gene No. 533, Rn.106184, group (C)): +
- Behavior of gene caused by administration of chemical substance ([2]; Gene No. 725, Rn.108075, group (C)): −
- Behavior of gene caused by administration of chemical substance ([2]; Gene No. 813, Rn.201760, group (C)): −
- Behavior of gene caused by administration of chemical substance ([2]; Gene No. 893, Rn.164817, group (C)): −
- Behavior of gene caused by administration of chemical substance ([2]; Gene No. 1119, Rn.9757, group (C)): −
- Behavior of gene caused by administration of chemical substance ([2]; Gene No. 1131, Rn.144946, group (C)): −
- Behavior of gene caused by administration of chemical substance ([2]; Gene No. 1163, Rn.11766, group (C)): −
- Behavior of gene caused by administration of chemical substance ([2]; Gene No. 1334, Rn.120914, group (C)): −
- Behavior of gene caused by administration of chemical substance ([2]; Gene No. 1494, Rn.1430, group (B)): −
- Behavior of gene caused by administration of chemical substance ([2]; Gene No. 1562, Rn.14744, group (C)): −
- Behavior of gene caused by administration of chemical substance ([2]; Gene No. 1741, Rn.1647, group (C)): −
- Behavior of gene caused by administration of chemical substance ([2]; Gene No. 1993, Rn.18728, group (C)): −
- Behavior of gene caused by administration of chemical substance ([2]; Gene No. 2026, Rn.167075, group (A)): −
- Behavior of gene caused by administration of chemical substance ([2]; Gene No. 2045, Rn.19329, group (B)): −
- Behavior of gene caused by administration of chemical substance ([2]; Gene No. 2203, Rn.21240, group (B)): −
- Behavior of gene caused by administration of chemical substance ([2]; Gene No. 2494, Rn.23969, group (C)): −
- Behavior of gene caused by administration of chemical substance ([2]; Gene No. 2546, Rn.24561, group (C)): −
- Behavior of gene caused by administration of chemical substance ([2]; Gene No. 3776, Rn.43232, group (C)): −
- Behavior of gene caused by administration of chemical substance ([2]; Gene No. 3929, Rn.4620, group (C)): −
- Behavior of gene caused by administration of chemical substance ([2]; Gene No. 4095, Rn.119024, group (C)): −
- Behavior of gene caused by administration of chemical substance ([2]; Gene No. 4218, Rn.167075, group (A)): −
- Behavior of gene caused by administration of chemical substance ([2]; Gene No. 4846, Rn.144554, group (A)): −
- Behavior of gene caused by administration of chemical substance ([2]; Gene No. 4973, Rn.118529, group (C)): +
- Behavior of gene caused by administration of chemical substance ([2]; Gene No. 5600, Rn.9836, group (A)): −
- Behavior of gene caused by administration of chemical substance ([2]; Gene No. 5634, Rn.9862, group (C)): −
- Behavior of gene caused by administration of chemical substance ([2]; Gene No. 5726, Rn.9939, group (D)): −
- Behavior of gene caused by administration of chemical substance ([2]; Gene No. 5878, Rn.143213, group (C)): −
- Behavior of gene caused by administration of chemical substance ([2]; Gene No. 6026, Rn.167685, group (C)): −
- Behavior of gene caused by administration of chemical substance ([2]; Gene No. 6182, Rn.5834, group (A)): −
- Behavior of gene caused by administration of chemical substance ([2]; Gene No. 6303, Rn.123063, group (C)): −
- Behavior of gene caused by administration of chemical substance ([2]; Gene No. 6620, Rn.120914, group (C)): −
- Behavior of gene caused by administration of chemical substance ([2]; Gene No. 6742, Rn.9779, group (C)): +

— US20110039721A1, “METHOD FOR PREDICTION ABOUT CARCINOGENICITY OF SUBSTANCE IN RODENT” (Chemicals Evaluation and Research Institute, priority 2007, published 2011)
